Columns and labels:
[1] = tested on: Mus musculus; test: Neuroprotective activity against scopolamine-induced oxidative damage in albino mouse assessed as nitrite level in plasma at 0.5 mg/kg, ip administered 5 mins post scopolamine-challenge by Greiss assay (reference value: 483.5 +/- 27.1 ug/ml); type: functional
[2] = tested on: Mus musculus; test: Neuroprotective activity against scopolamine-induced oxidative damage in albino mouse assessed as glutathione reductase level in brain measured per mg of protein at 0.5 mg/kg, ip administered 5 mins post scopolamine-challenge by Ellamns assay (reference value: 0.008 +/- 0.001 umol); type: functional
[3] = tested on: Mus musculus; test: Neuroprotective activity against scopolamine-induced oxidative damage in albino mouse assessed as superoxide dismutase level in brain at 0.5 mg/kg, ip administered 5 mins post scopolamine-challenge measured at every 30 to 60 secs interval for 2 mins by NBT reduction assay (reference value: 0.17 +/- 0.03 U/mg); type: functional
[4] = tested on: Mus musculus; test: Neuroprotective activity against scopolamine-induced oxidative damage in albino mouse assessed as lipid peroxidation in brain by measuring MDA level per mg protein at 0.5 mg/kg, ip administered 5 mins post scopolamine-challenge by TBARS assay (reference value: 2.73 +/- 0.36 mol); type: functional
[5] = tested on: Mus musculus; test: Inhibition of scopolamine-induced increase in AchE level in albino mouse assessed as AChE level in brain at 0.5 mg/kg, ip administered 5 mins post scopolamine-challenge using acetlythiocholine iodidie as substrate by Ellman's method (reference value: 0.011 +/- 0.0022 umol/min/mg); type: functional
[6] = tested on: Mus musculus; test: Antiamnesic activity against scopolamine-induced memory loss in albino mouse assessed as time spent in target quadrant at 0.5 mg/kg, ip administered 5 mins post scopolamine-challenge and 35 mins prior to training measured on day 5 by Morris water maze test (reference value: 4 +/- 1.15 sec); type: functional
[7] = tested on: Mus musculus; test: Antiamnesic activity against scopolamine-induced memory loss in albino mouse assessed as escape latency time at 0.5 mg/kg, ip administered 5 mins post scopolamine-challenge and 35 mins prior to training measured on day 5 by Morris water maze test (reference value: 84.92 +/- 1.64 sec); type: functional
[8] = tested on: Mus musculus; test: Antiamnesic activity against scopolamine-induced memory loss in albino mouse assessed as escape latency time at 0.5 mg/kg, ip administered 5 mins post scopolamine-challenge and 35 mins prior to training measured on day 4 by Morris water maze test (reference value: 87.17 +/- 1.03 sec); type: functional
[9] = tested on: Mus musculus; test: Antiamnesic activity against scopolamine-induced memory loss in albino mouse assessed as escape latency time at 0.5 mg/kg, ip administered 5 mins post scopolamine-challenge and 35 mins prior to training measured on day 3 by Morris water maze test (reference value: 88.33 +/- 0.95 sec); type: functional
[10] = tested on: Mus musculus; test: Antiamnesic activity against scopolamine-induced memory loss in albino mouse assessed as escape latency time at 0.5 mg/kg, ip administered 5 mins post scopolamine-challenge and 35 mins prior to training measured on day 2 by Morris water maze test (reference value: 89.41 +/- 0.39 sec); type: functional
[11] = target: T1, Acetylcholinesterase (Mus musculus, UniProt P21836); test: Competitive inhibition of albino mouse brain AChE using acetylthiocholine iodide as substrate measured up to 2 mins by Ellmans method
T1 sequence (P21836 whole entry): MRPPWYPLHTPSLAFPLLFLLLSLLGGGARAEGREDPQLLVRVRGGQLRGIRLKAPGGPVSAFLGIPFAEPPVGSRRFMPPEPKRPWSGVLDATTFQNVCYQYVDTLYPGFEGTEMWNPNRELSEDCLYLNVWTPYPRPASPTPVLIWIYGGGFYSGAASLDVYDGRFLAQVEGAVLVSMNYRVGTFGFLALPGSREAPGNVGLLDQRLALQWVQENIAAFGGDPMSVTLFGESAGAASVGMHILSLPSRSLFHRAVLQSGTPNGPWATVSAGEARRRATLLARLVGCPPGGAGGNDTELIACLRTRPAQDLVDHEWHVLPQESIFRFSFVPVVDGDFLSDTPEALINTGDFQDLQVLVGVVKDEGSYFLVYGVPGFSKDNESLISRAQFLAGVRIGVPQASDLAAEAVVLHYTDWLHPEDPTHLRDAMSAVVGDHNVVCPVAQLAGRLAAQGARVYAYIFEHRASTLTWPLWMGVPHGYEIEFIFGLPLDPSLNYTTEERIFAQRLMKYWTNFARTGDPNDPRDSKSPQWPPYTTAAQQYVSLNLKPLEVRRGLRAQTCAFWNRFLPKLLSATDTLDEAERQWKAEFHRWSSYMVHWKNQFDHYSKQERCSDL

[12] = tested on: Mus musculus; test: Antiamnesic activity against scopolamine-induced memory loss in albino mouse assessed as escape latency time at 0.5 mg/kg, ip administered 5 mins post scopolamine-challenge and 35 mins prior to training measured on day 1 by Morris water maze test (reference value: 89.67 +/- 0.23 sec); type: functional
[13] = tested on: Mus musculus; test: Antiamnesic activity against scopolamine-induced memory loss in albino mouse assessed as latency to reach shock free zone at 0.5 mg/kg, ip administered 5 mins post scopolamine-challenge and 35 mins prior to training by passive avoidance test (reference value: 53.25 +/- 1.37 sec); type: functional
[14] = tested on: Mus musculus; test: Antiamnesic activity against scopolamine-induced memory loss in albino mouse assessed as basal latency to reach shock free zone at 0.5 mg/kg, ip administered 5 mins post scopolamine-challengen and 35 mins prior to training by passive avoidance test (reference value: 40.25 +/- 2.84 sec); type: functional
[15] = target: T1, Acetylcholinesterase; test: Inhibition of albino mouse brain AChE using acetylthiocholine iodide as substrate measured for 2 mins by Ellmans method; type: tissue-based
[16] = tested on: Mus musculus; test: Neuroprotective activity against scopolamine-induced oxidative damage in albino mouse assessed as catalase activity by measuring H2O2 decomposition per mg of protein at 0.5 mg/kg, ip administered 5 mins post scopolamine-challenge (reference value: 1.37 +/- 0.25 micromol/min); type: functional
[17] = tested on: Mus musculus; test: Antiamnesic activity against scopolamine-induced memory loss in albino mouse assessed as number of mistakes at 0.5 mg/kg, ip administered 5 mins post scopolamine-challenge and 35 mins prior to training by passive avoidance test (reference value: 12.25 +/- 0.47); type: functional
[18] = target: T1, Acetylcholinesterase; test: Uncompetitive inhibition of albino mouse brain AChE using acetylthiocholine iodide as substrate measured up to 2 mins by Ellmans method

| SMILES | Activity [1] [µg/mL] | Activity [2] [µmol] | Activity [3] [U/mg] | Activity [4] [nmol] | Activity [5] [µmol/min/mg] | Time [6] [s] | Time [7] [s] | Time [8] [s] | Time [9] [s] | Time [10] [s] | Ki [11] [µM] | Time [12] [s] | Time [13] [s] | Time [14] [s] | IC50 [15] [µM] | Activity [16] [µmol/min] | Activity [17] | Ki [18] [µM] |
| --- | --- | --- | --- | --- | --- | --- | --- | --- | --- | --- | --- | --- | --- | --- | --- | --- | --- | --- |
| O=C(Nc1nnc(-c2ccccc2Cl)s1)c1cc(C(F)(F)F)cc(C(F)(F)F)c1 | 291.8 | 0.016 | 5.87 | 0.73 | 0.002 | 25.33 | 21.67 | 52.92 | 73.75 | 84.25 | 0.97 | 89.75 | 4.5 | 30.75 | 2.74 | 2.79 | 3 |  |
| O=C(Nc1nnc(-c2ccccc2)s1)c1cccc(CCl)c1 | 268.5 | 0.012 | 5.95 | 0.67 | 0.004 |  |  |  |  |  |  |  |  |  | 4.09 | 2.67 |  | 0.85 |
| Cc1ccc(-c2nnc(NC(=O)c3cc(C(F)(F)F)cc(C(F)(F)F)c3)s2)cc1 | 306.5 | 0.012 | 5.23 | 1.09 | 0.003 |  |  |  |  |  |  |  |  |  | 7.09 | 2.69 |  | 3.77 |
| CC(=O)Oc1cccc(C(=O)Nc2nnc(-c3ccccc3Cl)s2)c1 | 265.5 | 0.013 | 5.29 | 0.76 | 0.004 | 23.33 | 23.92 | 46.83 | 62.33 | 77.83 |  | 88.42 | 4.5 | 36.33 | 3.03 | 2.66 | 4.25 | 0.64 |
| O=C(Nc1nnc(-c2ccccc2Cl)s1)c1cccc(CCl)c1 | 308.8 | 0.01 | 5.95 | 0.76 | 0.003 | 24.33 | 22.5 | 44.75 | 62.92 | 76.08 |  | 85.92 | 5.25 | 34.58 | 3 | 1.9 | 4.5 | 0.66 |
| CC(CC(=O)Nc1nnc(Cc2ccccc2)s1)CC(C)(C)C (stereo unspecified) |  |  |  |  |  |  |  |  |  |  |  |  |  |  | 27.1 |  |  | 3.99 |
| Cc1ccc(-c2nnc(NC(=O)c3cccc(CCl)c3)s2)cc1 |  |  |  |  |  |  |  |  |  |  | 3.84 |  |  |  | 12.6 |  |  |  |

From ChEMBL document CHEMBL3865823, “Ameliorative effects of amide derivatives of 1,3,4-thiadiazoles on scopolamine induced cognitive dysfunction” (Eur J Med Chem, 2016)
